Assay results published in patent publication US10272056B2, “Treatment for mitochondrial diseases” (The George Washington University a Congressionally …, priority 2015, dated 2019).
“Also recorded” adds a separate entry of the source.

How the values were obtained:
[1] = test system: neuronal cells; assay: Electron microscopy of mitochondria; assay type: cell-based; conditions: NaBt-treated vs control cells
Method: FIG. 9A-9C are graphs and images from microscopy showing that NaBt enhances mitochondrial bioenergetics. (A) Flow cytometric analysis of Δψm; *p<0.001. (B) ATP levels in live cells using a Mg^2+-based assay; *p<0.001. (C) Electron microscopy of mitochondria in control and NaBt-treated cells; scale bar=200 nm.
NaBt increases mitochondrial membrane potential (Δψm) and ATP levels. The MTR-based data raised the question: could NaBt also enhance mitochondrial bioenergetics? Δψm was assessed by live cell confocal microscopy and flow cytometry using the TMRM dye, which accumulates in the mitochondrial matrix in a Δψm-dependent fashion. A 1.5-fold increase in Δψm in NaBt-treated cells was observed (FIG. 9A). To test whether enhanced Δψm led to increased ATP output, ATP levels were monitored using the live cell Mg^2+-based ATP assay, which is compatible with the TMRM dye, allowing simultaneous recordings. A 1.6-fold increase in ATP levels in NaBt-treated cells was observed (FIG. 9B), in line with the MTR- and TMRM-based findings and the elongated mitochondrial morphology.

[2] = test system: MELAS fibroblasts; assay: Relative cellular ATP levels (magnesium green dye); assay type: cell-based, human
Method: FIG. 19 is a graph showing that NaBt augments the relative cellular ATP levels in MELAS fibroblasts. The relative cellular ATP content was examined by a fluorescent probe, magnesium green (Mg Gr). MELAS fibroblasts were treated for 6 and 24 hours with NaBt (2.5 m M) before being labeled with Mg-Gr.
To assess relative cellular ATP levels in live MELAS fibroblasts, the fluorescent magnesium green (Mg-Gr) dye, which has been successfully employed in live patient fibroblasts, was used. Fluorescence emission from the Mg-Gr dye is directly proportional to the concentration of intracellular free Mg2+ concentration. Since the affinity of Mg2+ for ATP is about ten times higher than its affinity for ADP or AMP, the fluorescence intensity is inversely correlated with the intracellular levels of ATP. A time course exposure to NaBt ([…]) was performed using MELAS fibroblasts from one patient that has been comprehensively evaluated in terms of mitochondrial mass, mitochondrial membrane potential, and mitochondrial dynamics and networking (FIGS. 17 and 18). […] Thus, butyrates augment the functional mitochondrial mass in dermal MELAS fibroblasts, thereby reversing their deficits in mitochondrial mass and bioenergetics capacity.

[3] = test system: PC12-ND6 cells; assay: ROS (superoxide anions) by MitoSOX live cell confocal microscopy; assay type: cell-based; conditions: NaBt 5 mM, three days
Method: PC12-ND6 cells were grown in the absence or presence of NaBt (5 mM) for three days before being labeled with the MitoSox™ dye and the nuclear counterstain Hoechst 33342 and analyzed by live cell confocal imaging. Images are representative of three independent experiments. Scale bar represents 10 μm.
On the basis that increased ΔΨm could result in elevated ROS levels due to electron leakage through the mitochondrial electron transfer chain (ETC), the relative levels of superoxide anions (O2^−) were measured by live cell confocal microscopy using the redox-sensitive fluorogenic live-cell permeant dye MitoSOX™, as described in Uittenbogaard et al., 2010b.

[4] = test system: PC12-ND6 cells; assay: Neurite outgrowth with dbcAMP; assay type: cell-based
Method: FIG. 13A-13E are images from microscopy and graphs showing that the timing of NaBt treatment is critical for enhancing neuronal differentiation of PC12-ND6 cells upon sub-optimal neurotrophic cues. (A) Confocal micrographs of PC12-ND6 cells treated with dbcAMP alone or with NaBt (5 mM) in a simultaneous or sequential manner. Scale bar represents 5 μm. (B) Graph of neurite length. Mean±SEM (n=50 for each condition; compared to control (no NaBt) *p=0.0001 and **p=0.0009). (C) Confocal micrographs of PC12-ND6 cells treated with sub-optimal NGF concentration (10 ng/ml) alone or first NaBt (5 mM) in a simultaneous or sequential manner. Scale bar represents 10 μm. (D) Graph of average total neurite length. Mean±SEM (n=50 for each condition; compared to control *p=0.0001). (E) Graph of the frequency of total neurite length below and above 90 μm.
The timing of NaBt pre-treatment is critical for enhancing neuronal differentiation of PC12-ND6 cells and potentiating sub-optimal neurotrophic cues. We next investigated whether NaBt-mediated increase of mitochondrial biogenesis could potentiate subsequent sub-optimal neurotrophic cues to trigger effective neurite outgrowth in PC12-ND6 cells and whether a temporal window for NaBt responsiveness might exist. […]

[5] = test system: E17.5 neurons; assay: In vivo mitochondrial mass of E17.5 brains from treated pregnant dams; parameters: species or system mice; conditions: E12.5 pregnant dams, NaBt 1.2 g/Kg intraperitoneally vs PBS
Source text: FIG. 7A-7F show images from microscopy and graphs showing NaBt increases mitochondrial mass. (A) Live cell confocal microscopy of E17.5 hippocampal neurons; high magnification in inset; scale bar=5 (B) Quantitative analysis of the mitochondrial biomass in E17.5 neurons using an anti-CoxVα antibody; *p<0.001. (C) Live cell confocal microscopy of PC12-ND6 cells; high magnification in inset; scale bar=5 (D) Flow cytometric analysis of mitochondrial mass; *p<0.001. (E) Confocal microscopy of E17.5 brains from E12.5 pregnant dams treated with PBS (sham) or NaBt; scale bar=20 (F) Quantitative analysis of mitochondrial mass; *p<0.001.
Experimental paradigms. These are: 1) E17.5 differentiating hippocampal neurons expressing NeuroD6; 2) the PC12-NeuroD6 neuronal cell line recapitulating the early stages of differentiation; 3) E12.5 timed-pregnant dams treated intraperitoneally with NaBt (1.2 g/Kg) or PBS; and 4) cultured primary skin fibroblasts isolated from two MELAS patients and a healthy subject. Patient fibroblasts are the most suitable system to investigate the therapeutic potential of the butyrate derivatives (NaBt, TBN, and AN9) within the context of the patient's nuclear background and heteroplasmy, as MELAS animal models have not been generated due to polyploidy of the mt genome, heteroplasmic load, and influence of the nuclear background on MELAS phenotypic variability. […]

With `CCCC(=O)[O-].[Na+]` [NaBt, sodium butyrate] as the molecule, how does the mitochondrial micro-architecture [1] read?
The mitochondrial micro-architecture was “increased numbers of elongated cristae”.

What about the “relative cellular ATP levels” value ([2]; 24 hours NaBt 2.5 mM) of the same molecule?
Its value is “became more accentuated”.

What about the “relative cellular ATP levels” value ([2]; first 24 hours of NaBt (2.5 mM) treatment) of the same molecule?
The value was “steady increase in relative cellular ATP levels”.

What about the “relative cellular ATP levels” value ([2]; six hours NaBt 2.5 mM) of the same molecule?
Its value is “increase in relative cellular ATP levels”.

And the ROS production [3]?
Its ROS production is “does not trigger ROS generation; also recorded: failed to generate ROS production”.

What about the neuritogenesis upon co-addition ([4]; NaBt 5 mM and dbcAMP 1 mM added together) of the same molecule?
Its neuritogenesis upon co-addition is “severely dampened”.

And the neurite length ([4]; NaBt pre-treatment three days at highest dose, then dbcAMP 1 mM 24 hours)?
Its neurite length is 50 μm.

What about the “increase of in vivo mitochondrial mass of E17.5 neurons” value [5] of the same molecule?
Its value is 1.6 fold.
